# Results as given in patent US20130273649A1, “Culture medium for pluripotent stem cells” (UNIVERSITY OF SOUTHERN CALIFORNIA, priority 2012, published 2013).
# Experiments:
# H9 human ESCs = assay: Human ESC self-renewal culture; format: cell-based
# From the text: As human ESCs share defining features with mouse EpiSCs (Hanna et al., 2010; Rossant, 2008; Tesar et al., 2007), we tested whether modulating β-catenin function can also promote human ESC self-renewal. […] Next, we examined the effect of CHIR/XAV and CHIR/IWR-1 on human ESC self-renewal. […] Similar results were obtained in H1 and HES3 human ESCs (data not shown). […] Moreover, human ESCs maintained in CHIR/IWR-1 express pluripotency markers Oct4, Nanog and Sox2 (FIG. 7E), and retain the ability to differentiate into cells of all three germ layers, both in vitro and in vivo (FIGS. 7F and 7G).
# The basal medium for mouse EpiSC culture is the conventional mouse ESC medium, which consists of GMEM (Sigma) supplemented with 10% fetal bovine serum (FBS) (Hyclone), 2 mM L-glutamine (Invitrogen), 1 mM sodium pyruvate (Invitrogen), 1% nonessential amino acids (Invitrogen), and 0.1 mM (3-mercaptoethanol. Mouse EpiSCs were derived and maintained in the basal medium supplemented with FGF2/activin, CHIR/XAV, or CHIR/IWR-1. The basal medium for rat EpiSC culture is N2B27 (Tong et al., 2011), which was prepared by mixing 500 ml of DMEM/F12 (Invitrogen) with 500 ml of Neurobasal™ medium (Invitrogen), and adding 5 ml of N2 (Invitrogen), 10 ml of B27 (Invitrogen), 5 ml of Glutamax™ (Invitrogen), and 1 ml of 0.1 M β-mercaptoethanol (Sigma). The basal medium for human ESC culture consists of Knockout™ DMEM/F12 supplemented with 20% KSR (Invitrogen), 1% nonessential amino acids, 2 mM L-glutamine, and 0.1 mM (3-mercaptoethanol. Human ESCs were cultured in the basal medium supplemented with FGF2, CHIR/XAV, or CHIR/IWR-1.
# H1, H9, HES-2 and HES-3 human ESC lines were kindly provided by the University of Southern California Stem Cell Core Facility. Human ESCs were routinely maintained on γ-irradiated MEF feeders in Knockout™ DMEM medium (Invitrogen) supplemented with 20% Knockout™ serum replacement (KSR; Invitrogen), 10 ng/ml FGF2 (PeproTech), 1% nonessential amino acids, 2 mM L-glutamine, and 0.1 mM β-mercaptoethanol. […]
# Axin2 = assay: Western blot of Axin2 in human ESCs; format: cell-based; settings: human ESCs treated 24 h
# CD1 EpiSCs = assay: Clonogenicity: colony formation after single-cell deposition of EpiSCs; format: cell-based, mouse; settings: 96-well plate, CHIR only
# Method: (A) Representative phase-contrast images of CD1 mouse EpiSCs cultured in the indicated conditions. […] (B) Phase-contrast image showing differentiating CD1 mouse EpiSCs at the 2nd passage in GMEM/10% FBS with 2 μM XAV. (C) CD1 mouse EpiSCs were cultured in CHIR/XAV for 7 passages and were subsequently immunostained with indicated antibodies against pluripotency markers. (D) Numbers of undifferentiated colonies formed by day 9 after single-cell deposition of CD1 EpiSCs into 0.1% gelatin-coated 96-well plates and cultured in the conventional mouse ESC medium supplemented with the indicated small molecules or cytokines Results are shown as mean±s.d. of six biological replicates. (E) De novo derivation of mouse EpiSCs. Epiblast tissue (outlined in dashed line) of the E5.75 CD1 mouse embryo was dissected and cultured in CHIR/XAV. The outgrowth formed from the plated epiblast (middle panel) was disaggregated to establish a stable EpiSC line (right panel). Thirteen […] established from 13 plated CD1 mouse embryos. Scale bars, 50 μ[…]). See also FIG. 8. We compared the clonogenicity of EpiSCs cultured in different conditions. […] EpiSC colonies formed in CHIR/XAV were readily expanded to establish stable cell lines. […] As expected, in the CHIR/XAV condition, EpiSCs were readily derived from embryonic day (E) 5.75 embryos of CD1 and 129SvE mice (FIGS. 1E and 8B). […]
smiles,measurement,setting,value
"Cc1c[nH]c(-c2cnc(NCCNc3ccc(C#N)cn3)nc2-c2ccc(Cl)cc2Cl)n1 [CHIR99021, 6-((2-((4-(2,4-Dichlorophenyl)-5-(4-methyl-1H-imidazol-2-yl)pyrimidin-2-yl)amino)ethyl)amino)nicotinonitrile]",self-renewal of Axin2-overexpressing human ESCs,"H9 human ESCs; Axin2-hESC (H9), CHIR alone",could support stable and long-term self-renewal of Axin2-hESCs
same,human ESC self-renewal / differentiation,"H9 human ESCs; H9 human ESCs, CHIR 3 μM, IWR-1 2.5 μM, XAV939 2 μM",induced differentiation of H9 human ESCs
same,amount of Axin2 protein,Axin2,induced the expression of Axin2
same,undifferentiated colony formation from single EpiSC,CD1 EpiSCs,No undifferentiated colonies formed
